Tests used:
Type in all cases: cell-based
[1] = tested on: FRDA fibroblasts (Coriell GM04078); experiment: Rescue of BSO-stressed human dermal fibroblasts from Friedreich's ataxia patients (Calcein AM viability); conditions: FRDA fibroblasts stressed with 1 mM BSO, 48 h, Calcein AM fluorescence, read-out: protection against FRDA, EC50
Procedure: Test samples and solvent controls were tested for their ability to rescue FRDA fibroblasts stressed by addition of L-buthionine-(S,R)-sulfoximine (BSO), as described in Jauslin et al., Hum. Mol. Genet. 11(24):3055 (2002), Jauslin et al., FASEB J. 17:1972-4 (2003), and International Patent Application WO 2004/003565. […] This specific BSO-mediated cell death can be prevented by administration of antioxidants or molecules involved in the antioxidant pathway, such as alpha-tocopherol, selenium, or small molecule glutathione peroxidase mimetics. However, antioxidants differ in their potency, i.e. the concentration at which they are able to rescue BSO-stressed FRDA fibroblasts. MEM (a medium enriched in amino acids and vitamins, catalog no. 1-31F24-I) and Medium 199 (M199, catalog no. 1-21F22-I) with Earle's Balanced Salts, without phenol red, were purchased from Bioconcept. Fetal Calf Serum was obtained from PAA Laboratories. Basic fibroblast growth factor and epidermal growth factor were purchased from PeproTech. Penicillin-streptomycin-glutamine mix, L-buthionine (S,R)-sulfoximine, and insulin from bovine pancreas were purchased from Sigma. Calcein AM was purchased from Molecular Probes. Cell culture medium was made by combining 125 ml M199 EBS, 50 ml Fetal Calf Serum, 100 U/ml penicillin, 100 μg/ml streptomycin, 2 mM glutamine, 10 μg/ml insulin, 10 ng/ml EGF, and 10 ng/ml bFGF; MEM EBS was added to make the volume up to 500 ml. A 10 mM BSO solution was prepared by dissolving 444 mg BSO in 200 ml of medium with subsequent filter-sterilization. During the course of the experiments, this solution was stored at +4° C. The cells were obtained from the Coriell Cell Repositories (Camden, N.J.; repository number GM04078) and grown in 10 cm tissue culture plates. Every third day, they were split at a 1:3 ratio. The test samples were supplied in 1.5 ml glass vials. The compounds were diluted with DMSO, ethanol or PBS to result in a 5 mM stock solution. Once dissolved, they were stored at −20° C. Test samples were screened according to the following protocol: A culture with FRDA fibroblasts was started from a 1 ml vial with approximately 500,000 cells stored in liquid nitrogen. Cells were propagated in 10 cm cell culture dishes by splitting every third day in a ratio of 1:3 until nine plates were available. Once confluent, fibroblasts were harvested. For 54 micro titer plates (96 well-MTP) a total of 14.3 million cells (passage eight) were re-suspended in 480 ml medium, corresponding to 100 μL medium with 3,000 cells/well. The remaining cells were distributed in 10 cm cell culture plates (500,000 cells/plate) for propagation. The plates were incubated overnight at 37° C. in a atmosphere with 95% humidity and 5% CO2 to allow attachment of the cells to the culture plate. MTP medium (243 μL) was added to a well of the microtiter plate. The test compounds were unfrozen and 7.5 μL of a 5 mM stock solution was dissolved in the well containing 243 μL medium, resulting in a 150 μM master solution. Serial dilutions from the master solution were made. The period between the single dilution steps was kept as short as possible (generally less than 1 second). Plates were kept overnight in the cell culture incubator. The next day, 10 μL of a 10 mM BSO solution were added to the wells, resulting in a 1 mM final BSO concentration. Forty-eight hours later, three plates were examined under a phase-contrast microscope to verify that the cells in the 0% control (wells E1-H1) were clearly dead. The medium from all plates was discarded, and the remaining liquid was removed by gently tapping the plate inversed onto a paper towel. 100 μl of PBS containing 1.2 μM Calcein AM were then added to each well. The plates were incubated for 50-70 minutes at room temperature. After that time the PBS was discarded, the plate gently tapped on a paper towel and fluorescence (excitation/emission wavelengths of 485 nm and 525 nm, respectively) was read on a Gemini fluorescence reader. […]

[2] = tested on: Huntington's cells (Coriell GM 04281); experiment: Rescue of fibroblasts from Huntington's patients from oxidative stress (screen as in Example A); conditions: Fibroblast, human dermal fibroblasts from Huntington's patients, read-out: protection against Huntington's, EC50
Procedure: Compounds of the invention were tested using the screen as described in Example A, but substituting FRDA cells with Huntington's cells obtained from the Coriell Cell Repositories (Camden, N.J.; repository number GM 04281). The compounds were tested for their ability to rescue human dermal fibroblasts from Huntington's patients from oxidative stress.

[3] = tested on: Leber's Hereditary Optic Neuropathy (LHON) cells (Coriell GM03858); experiment: Rescue of fibroblasts from Leber's Hereditary Optic Neuropathy patients from oxidative stress (screen as in Example A); conditions: Fibroblast, human dermal fibroblasts from LHON patients, read-out: protection against LHON, EC50
Procedure: Compounds of the invention were screened as described in Example A, but substituting FRDA cells with Leber's Hereditary Optic Neuropathy (LHON) cells obtained from the Coriell Cell Repositories (Camden, N.J.; repository number GM03858). The compounds were tested for their ability to rescue human dermal fibroblasts from LHON patients from oxidative stress.

[4] = tested on: cells obtained from CoQ10 deficient patients harboring a CoQ2 mutation; experiment: Rescue of fibroblasts from CoQ10 deficient patients from oxidative stress (screen similar to Example A); conditions: Fibroblast, human dermal fibroblasts from CoQ10 deficient patients (CoQ2 mutation), read-out: protection against CoQ10 deficiency, EC50
Procedure: Compounds of the invention were tested using a screen similar to the one described in Example A, but substituting FRDA cells with cells obtained from CoQ10 deficient patients harboring a CoQ2 mutation. The compounds were tested for their ability to rescue human dermal fibroblasts from CoQ10 deficient patients from oxidative stress.

[5] = tested on: Parkinson's disease (PD) cells (Coriell AG20439); experiment: Rescue of fibroblasts from Parkinson's disease patients from oxidative stress (screen as in Example A); conditions: Fibroblast, human dermal fibroblasts from Parkinson's disease patients, read-out: protection against PD, EC50
Procedure: Compounds of the invention were screened as described in Example A, but substituting FRDA cells with Parkinson's disease (PD) cells obtained from the Coriell Cell Repositories (Camden, N.J.; repository number AG20439). The compounds were tested for their ability to rescue human dermal fibroblasts from Parkinson's disease patients from oxidative stress.

Row | Structure (SMILES) | EC50 [1] | EC50 [2] | EC50 [3] | EC50 [4] | EC50 [5]
1 | COC1=C(OC)C(=O)c2ccccc2C1=O [2,3-dimethoxynaphthalene-1,4-dione] | < 100 nM | < 150 nM | < 150 nM | < 100 nM | –
2 | CC1=C(C)C(=O)c2ccccc2C1=O [2,3-dimethylnaphthalene-1,4-dione] | < 100 nM | < 150 nM | < 150 nM | < 100 nM | < 200 nM
3 | CCCCC1=C(C)C(=O)c2ccccc2C1=O [2-butyl-3-methylnaphthalene-1,4-dione] | < 100 nM | < 150 nM | < 150 nM | < 100 nM | < 200 nM
4 | CCCCCCC1=C(C)C(=O)c2ccccc2C1=O [2-hexyl-3-methylnaphthalene-1,4-dione] | < 100 nM | < 150 nM | < 150 nM | < 100 nM | < 200 nM
5 | COC1=CC(=O)c2ccccc2C1=O [2-methoxynaphthalene-1,4-dione] | < 100 nM | < 150 nM | < 150 nM | < 100 nM | –
6 | O=C1C=CC(=O)c2ccccc21 [naphthalene-1,4-dione] | < 100 nM | < 150 nM | < 150 nM | – | < 200 nM

Source: patent US20130345312A1, “TREATMENT OF MITOCHONDRIAL DISEASES WITH NAPHTHOQUINONES” (priority 2010, published 2013)
